From the NIST ThermoML archive (doi:10.1016/j.jct.2004.10.005)

Test: molar heat capacity at saturation pressure
Conditions: Vacuum adiabatic calorimetry

BrC12CC3CC(CC(C3)C1)C2 [1-bromotricyclo[3.3.1.1(3,7)]decane]
Conditions	molar heat capacity [J/K/mol]
5.98 K, Crystal 4	1.102
6.34 K, Crystal 4	1.301
6.73 K, Crystal 4	1.56
7.05 K, Crystal 4	1.776
7.4 K, Crystal 4	2.048
7.78 K, Crystal 4	2.391
8.34 K, Crystal 4	2.94
8.96 K, Crystal 4	3.558
9.37 K, Crystal 4	4.013
9.8 K, Crystal 4	4.489
10.27 K, Crystal 4	5.11
10.71 K, Crystal 4	5.643
11.11 K, Crystal 4	6.154
11.51 K, Crystal 4	6.677
11.92 K, Crystal 4	7.254
12.35 K, Crystal 4	7.849
12.82 K, Crystal 4	8.366
13.25 K, Crystal 4	9.058
14.09 K, Crystal 4	10.21
14.56 K, Crystal 4	10.84
15 K, Crystal 4	11.48
15.42 K, Crystal 4	12.01
15.87 K, Crystal 4	12.79
16.34 K, Crystal 4	13.48
16.79 K, Crystal 4	14.11
17.32 K, Crystal 4	14.74
17.91 K, Crystal 4	15.58
18.48 K, Crystal 4	16.3
19.01 K, Crystal 4	17.14
19.61 K, Crystal 4	17.85
20.29 K, Crystal 4	18.72
20.93 K, Crystal 4	19.58
21.63 K, Crystal 4	20.43
22.39 K, Crystal 4	21.39
23.1 K, Crystal 4	22.23
23.9 K, Crystal 4	23.12
24.76 K, Crystal 4	24.04
25.69 K, Crystal 4	25.07
26.66 K, Crystal 4	26.14
27.58 K, Crystal 4	27.16
28.56 K, Crystal 4	28.01
29.52 K, Crystal 4	28.99
29.57 K, Crystal 4	29.29
30.13 K, Crystal 4	29.69
30.42 K, Crystal 4	30.4
30.62 K, Crystal 4	30.95
30.71 K, Crystal 4	31.25
31.02 K, Crystal 4	33.37
31.27 K, Crystal 3	31.25
31.56 K, Crystal 3	31.24
31.81 K, Crystal 3	31.34
32.25 K, Crystal 3	31.61
33.06 K, Crystal 3	32.35
33.28 K, Crystal 3	32.47
34.66 K, Crystal 3	33.75
36.35 K, Crystal 3	35.07
38.12 K, Crystal 3	36.42
39.98 K, Crystal 3	37.78
41.9 K, Crystal 3	39.06
43.96 K, Crystal 3	40.39
46.12 K, Crystal 3	41.85
48.32 K, Crystal 3	43.17
50.74 K, Crystal 3	44.52
53.31 K, Crystal 3	45.98
55.82 K, Crystal 3	47.36
58.21 K, Crystal 3	48.67
60.62 K, Crystal 3	50.13
63.03 K, Crystal 3	51.45
65.43 K, Crystal 3	52.6
67.86 K, Crystal 3	54.08
70.3 K, Crystal 3	55.24
72.8 K, Crystal 3	56.68
75.3 K, Crystal 3	57.96
77.74 K, Crystal 3	59.21
80.19 K, Crystal 3	60.74
82.69 K, Crystal 3	61.79
85.17 K, Crystal 3	63.27
87.66 K, Crystal 3	64.58
90.17 K, Crystal 3	65.86
92.68 K, Crystal 3	67.39
95.2 K, Crystal 3	68.53
97.74 K, Crystal 3	70.12
100.3 K, Crystal 3	71.52
100.96 K, Crystal 3	71.76
102.83 K, Crystal 3	72.73
104.15 K, Crystal 3	73.63
105.3 K, Crystal 3	74.09
107.32 K, Crystal 3	75.22
110.3 K, Crystal 3	76.73
113.21 K, Crystal 3	78.44
116.14 K, Crystal 3	79.82
119.1 K, Crystal 3	81.75
122.01 K, Crystal 3	83.28
124.86 K, Crystal 3	84.61
